In PubChem BioAssay (NCI):
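Compound exposure: 48 hours, 5 concentrations, 96-well plates. GI50 is the concentration that inhibits growth by half. TGI denotes the concentration required for complete inhibition of growth.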

How the values were obtained:
Experiment in all cases: inhibition of tumour cell growth, NCI panel, 48 h
EKVX NSCLC = system: EKVX NSCLC
HCT-116 colon = system: HCT-116 colon
HOP-62 NSCLC = system: HOP-62 NSCLC
KM12 colon = system: KM12 colon
MALME-3M melanoma = system: MALME-3M melanoma
MOLT-4 leukemia = system: MOLT-4 leukemia
SK-MEL-28 melanoma = system: SK-MEL-28 melanoma
SNB-75 CNS = system: SNB-75 CNS
TK-10 renal = system: TK-10 renal
SR leukemia = system: SR leukemia

SMILES	GI50 (EKVX NSCLC)	TGI (EKVX NSCLC)	GI50 (HCT-116 colon)	TGI (HCT-116 colon)	GI50 (HOP-62 NSCLC)	TGI (HOP-62 NSCLC)	GI50 (KM12 colon)	TGI (KM12 colon)	GI50 (MALME-3M melanoma)	TGI (MALME-3M melanoma)	GI50 (MOLT-4 leukemia)	TGI (MOLT-4 leukemia)	GI50 (SK-MEL-28 melanoma)	TGI (SK-MEL-28 melanoma)	GI50 (SNB-75 CNS)	TGI (SNB-75 CNS)	GI50 (TK-10 renal)	TGI (TK-10 renal)	TGI (SR leukemia)	GI50 (SR leukemia)
Fc1cccc(Cl)c1Cn1c(-c2c(F)cccc2Cl)nc2ccccc21	13.3 µM	32.6 µM	34.4 µM	> 100 µM	23.2 µM	50.6 µM	14.6 µM	42.4 µM	8.29 µM	24.7 µM	11.1 µM	> 100 µM	20.4 µM	46.2 µM	22.1 µM	69.3 µM	15.6 µM	39.8 µM	–	–
COc1ccccc1NC(=O)C1=C(C)NC(C)=C(C(=O)Nc2ccccc2OC)C1c1cccc2ccccc12	–	> 100 µM	–	> 100 µM	–	–	–	> 100 µM	–	> 100 µM	–	> 100 µM	–	> 100 µM	–	98.8 µM	–	> 100 µM	–	–
CCOC(=O)C(=O)Nc1ccccc1OCC	–	> 100 µM	–	> 100 µM	–	> 100 µM	–	> 100 µM	–	> 100 µM	–	> 100 µM	–	> 100 µM	–	–	–	> 100 µM	–	–
O=C(O)c1cn(C2CC2)c2cc(N3CCNCC3)c(F)cc2c1=O	–	–	> 100 µM	> 100 µM	> 100 µM	> 100 µM	> 100 µM	> 100 µM	74.6 µM	> 100 µM	–	–	> 100 µM	> 100 µM	–	–	> 100 µM	> 100 µM	–	–
O=C(Oc1ccc2c(-c3ccccc3)c(C(=O)Nc3ccc(Cl)cc3)c(=O)oc2c1)c1ccccc1	–	> 100 µM	–	> 100 µM	–	> 100 µM	–	> 100 µM	–	> 100 µM	–	> 100 µM	–	> 100 µM	–	> 100 µM	–	> 100 µM	–	–
Cc1cn([C@H]2C[C@H](O)[C@@H](CO)O2)c(=O)nc1N	–	–	–	> 100 µM	–	> 100 µM	–	> 100 µM	–	> 100 µM	–	> 100 µM	–	> 100 µM	–	> 100 µM	–	> 100 µM	> 100 µM	–
COc1ccc2c(c1)C(=O)c1c-2c(N2CCN(C(=O)CNCCN(C)C)CC2)nc2ccccc12	3.87 µM	15.7 µM	1.22 µM	2.7 µM	1.86 µM	4.18 µM	1.83 µM	4.38 µM	1.96 µM	4.94 µM	1.47 µM	5.98 µM	1.67 µM	3.04 µM	–	–	4.15 µM	17.8 µM	–	–
O=C1CCCC(O)=C1SC1=C(O)CCCC1=O	–	> 100 µM	–	> 100 µM	–	–	–	> 100 µM	–	> 100 µM	–	> 100 µM	–	> 100 µM	–	> 100 µM	–	> 100 µM	–	–
COc1ccc(-c2nnc(SCC(=O)Nc3ccc(C(=O)/C=C/c4cc(OC)c(OC)c(OC)c4)cc3)n2-c2ccccc2)cc1OC	–	–	0.433 µM	> 10 µM	8.52 µM	> 10 µM	2.38 µM	> 10 µM	> 10 µM	> 10 µM	9.46 µM	> 10 µM	> 10 µM	> 10 µM	> 10 µM	> 10 µM	> 10 µM	> 10 µM	> 10 µM	0.666 µM
CCOC(=O)c1ccc(N(C=O)CCC(=O)CCl)cc1	–	–	0.0342 µM	1.73 µM	0.485 µM	13.4 µM	0.4 µM	15.4 µM	1.49 µM	3.48 µM	0.0433 µM	3.88 µM	1.74 µM	15.2 µM	0.997 µM	13.6 µM	1.78 µM	7.03 µM	–	–
O=C(c1nn(-c2ccc(Cl)cc2)cc1O)n1nc(C(F)(F)F)cc1-c1ccccc1	2 µM	> 100 µM	1.91 µM	> 100 µM	1.84 µM	> 76.9 µM	5.09 µM	> 100 µM	12.1 µM	> 100 µM	2.55 µM	> 100 µM	6.56 µM	> 100 µM	0.816 µM	> 100 µM	1.41 µM	> 100 µM	–	–
O=C(Cc1csc2nc(-c3ccc(Br)cc3)cn12)N/N=C/c1ccc(Cl)cc1Cl	31.6 µM	> 100 µM	17.1 µM	36.8 µM	16.6 µM	35 µM	38.2 µM	> 100 µM	–	–	–	26.3 µM	> 100 µM	> 100 µM	37.5 µM	> 100 µM	–	–	–	–
Nc1c(C(=O)NC23CC4CC(CC(C4)C2)C3)[n+]([O-])c2ccccc2[n+]1[O-]	–	> 100 µM	–	–	–	> 100 µM	–	> 100 µM	–	> 100 µM	–	> 100 µM	–	> 100 µM	–	> 100 µM	–	> 100 µM	–	–
COc1cc(C(=O)O/N=C(\N)Cc2cccc3ccccc23)cc(OC)c1OC	–	–	3.13 µM	13 µM	4.42 µM	18.7 µM	9.12 µM	22.1 µM	8.4 µM	21.9 µM	4.53 µM	29.4 µM	12.4 µM	26.2 µM	2.8 µM	15.6 µM	20.7 µM	35.2 µM	–	–
CC(C)=CC(=O)N[C@@H]1CC2CCC3C(CC[C@@]4(C)C3CC[C@@H]4C(C)N(C)C)[C@@]2(C)C[C@@H]1O (stereo partly specified)	3.12 µM	> 100 µM	1.63 µM	5.27 µM	4.3 µM	9.85 µM	4.41 µM	30.1 µM	2.91 µM	9.41 µM	2.5 µM	14 µM	1.91 µM	3.89 µM	5.97 µM	23.3 µM	14.1 µM	32.3 µM	–	–
CC(=O)Nc1ccc(-c2csc(Nc3cccc(-c4csc(-c5ccccc5)n4)c3)n2)cc1	20.2 µM	> 50 µM	18.4 µM	> 50 µM	> 50 µM	> 50 µM	24 µM	> 50 µM	–	–	> 50 µM	> 50 µM	6.75 µM	36.4 µM	–	–	19.7 µM	> 50 µM	> 50 µM	27.3 µM
